Results as given in patent US20240101576A1, “HETEROCYCLIC INHIBITORS OF EGFR AND/OR HER2, FOR USE IN THE TREATMENT OF CANCER” (Scorpion Therapeutics, Inc., priority 2020, published 2024).
pIC50: −log10 of the molar value.

Columns and labels:
Assay type in all cases: cell-based
EGFR WT (Ba/F3 cells) = target: T1, EGFR WT (Ba/F3 cells) (Homo sapiens, UniProt P00533); assay: Inhibitor activity on EGFR-dependent cell growth (CellTiter-Glo, 72 h), Ba/F3 EGFR WT; conditions: read-out: BaF3 WT IC50
T1 construct: expressed in transfected cells; host or cells: Ba/F3 (murine pro-B cells), retroviral transduction, puromycin selection, maintained with EGF
Method in brief: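 This growth assay used Ba/F3 cells that depend on wild-type EGFR and are kept in EGF without IL3. Compounds were made up as 10 mM DMSO stocks and diluted 3-fold over 10 points. 120 nL went onto 600 cells/well. After 72 hours, 40 μL CellTiter-Glo was added and luminescence read on EnVision after 30 min.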

[1] = target: T2, EGFR exon 20 NPG Ins D770_N771 (Ba/F3 cells) (Homo sapiens, UniProt P00533, INS770NPG); assay: Inhibitor activity on EGFR-dependent cell growth (CellTiter-Glo, 72 h), Ba/F3 EGFR exon 20 NPG Ins; conditions: read-out: BaF3 NPG IC50
T2 construct: expressed in transfected cells; host or cells: Ba/F3 (murine pro-B cells), retroviral transduction, puromycin selection, IL3-independent pool
Description: Example A. Inhibitor Activity on EGFR-Dependent Cell Growth
Cell lines are generated by transducing Ba/F3 cells with retroviruses containing vectors with EGFR WT, EGFR L858R, EGFR exon 19del, EGFR L858R/C797S, EGFR exon 20 NPG Ins D770_N771, EGFR exon 20 ASV Ins V769_D770, EGFR exon 20 SVD Ins D770_N771, or EGFR exon 20 FQEA Ins A763_V764 genes and a puromycin selection marker. Transduced cells are selected with puromycin for 7 days and are then be transferred into culture media without Interleukin 3 (IL3). EGFR WT cells are maintained with supplemental EGF. Surviving cells are confirmed to express EGFR by Western blot and maintained as a pool. The IC50 date were included in Table 6 and Table 7.
1.1 Cells are harvested from flask into cell culture medium and the cell number counted.
1.2 Cells are diluted with culture medium to the desired density and 40 μL of cell suspension is added into each well of 384-well cell culture plate and the seeding density is 800 (FQEA, exon 19del), 600 (WT, NPG, L858R/C797S), or 400 (ASV, SVD, L858R) cells/well.
2 Compound Preparation and Treatment
2.1 Test compounds are dissolved to 10 mM in a DMSO stock solution. 45 μL of stock solution is transferred to a 384 polypropylene plate (pp-plate). Perform 3-fold, 10-point dilution via transferring 15 μL compound into 30 μL DMSO using a TECAN (EVO200) liquid handler.
2.2 Spin plates at room temperature at 1,000 RPM for 1 minute.
2.3 Transfer 120 nL of diluted compound from compound source plate into the cell plate.
2.4 After compound treatment for 72 hours, perform CTG detection for compound treatment plates as described in “Detection” section.
3.1 Plates are removed from incubators and equilibrated at room temperature for 15 minutes.
3.2 Thaw the CellTiter Glo reagents and allow to equilibrate to room temperature before the experiment.
3.3 Add 40 μL of CellTiter-Glo reagent into each well (at 1:1 to culture medium). Then place the plates at room temperature for 30 min followed by reading on EnVision.
4.1 Inhibition activity is calculated following the formula below:
% Inhibition=100×(LumHC−LumSample)/(LumHC−LumLC) • where HC is obtained from cells treated with 0.1% DMSO only; and LC is obtained from culture medium only.
4.2 2. Calculate the IC50 by fitting the Curve using Xlfit (v5.3.1.3), equation 201.
Y=Bottom+(Top−Bottom)/(1+10^((Log IC50−X)*HillSlope))

[2] = target: T3, EGFR exon 20 ASV Ins V769_D770 (Ba/F3 cells) (Homo sapiens, UniProt P00533, INS769ASV); assay: Inhibitor activity on EGFR-dependent cell growth (CellTiter-Glo, 72 h), Ba/F3 EGFR exon 20 ASV Ins; conditions: read-out: BaF3 ASV IC50
T3 construct: expressed in transfected cells; host or cells: Ba/F3 (murine pro-B cells), retroviral transduction, puromycin selection, IL3-independent pool
Method in brief: (§1)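 IC50s derive from a sigmoidal dose–response fit of CellTiter-Glo signal. The signal was normalised between […]-treated cells and cell-free medium. Ba/F3 mutant-EGFR cells, seeded at 400–800/well depending on the line, had 72 h of exposure to a 10-point, 3-fold compound series.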

[3] = target: T4, EGFR exon 20 SVD Ins D770_N771 (Ba/F3 cells) (Homo sapiens, UniProt P00533, INS770SVD); assay: Inhibitor activity on EGFR-dependent cell growth (CellTiter-Glo, 72 h), Ba/F3 EGFR exon 20 SVD Ins; conditions: read-out: BaF3 SVD IC50
T4 construct: expressed in transfected cells; host or cells: Ba/F3 (murine pro-B cells), retroviral transduction, puromycin selection, IL3-independent pool
Method in brief: as §1

T3 sequence (P00533 with tags, fused parts or gaps INS769ASV): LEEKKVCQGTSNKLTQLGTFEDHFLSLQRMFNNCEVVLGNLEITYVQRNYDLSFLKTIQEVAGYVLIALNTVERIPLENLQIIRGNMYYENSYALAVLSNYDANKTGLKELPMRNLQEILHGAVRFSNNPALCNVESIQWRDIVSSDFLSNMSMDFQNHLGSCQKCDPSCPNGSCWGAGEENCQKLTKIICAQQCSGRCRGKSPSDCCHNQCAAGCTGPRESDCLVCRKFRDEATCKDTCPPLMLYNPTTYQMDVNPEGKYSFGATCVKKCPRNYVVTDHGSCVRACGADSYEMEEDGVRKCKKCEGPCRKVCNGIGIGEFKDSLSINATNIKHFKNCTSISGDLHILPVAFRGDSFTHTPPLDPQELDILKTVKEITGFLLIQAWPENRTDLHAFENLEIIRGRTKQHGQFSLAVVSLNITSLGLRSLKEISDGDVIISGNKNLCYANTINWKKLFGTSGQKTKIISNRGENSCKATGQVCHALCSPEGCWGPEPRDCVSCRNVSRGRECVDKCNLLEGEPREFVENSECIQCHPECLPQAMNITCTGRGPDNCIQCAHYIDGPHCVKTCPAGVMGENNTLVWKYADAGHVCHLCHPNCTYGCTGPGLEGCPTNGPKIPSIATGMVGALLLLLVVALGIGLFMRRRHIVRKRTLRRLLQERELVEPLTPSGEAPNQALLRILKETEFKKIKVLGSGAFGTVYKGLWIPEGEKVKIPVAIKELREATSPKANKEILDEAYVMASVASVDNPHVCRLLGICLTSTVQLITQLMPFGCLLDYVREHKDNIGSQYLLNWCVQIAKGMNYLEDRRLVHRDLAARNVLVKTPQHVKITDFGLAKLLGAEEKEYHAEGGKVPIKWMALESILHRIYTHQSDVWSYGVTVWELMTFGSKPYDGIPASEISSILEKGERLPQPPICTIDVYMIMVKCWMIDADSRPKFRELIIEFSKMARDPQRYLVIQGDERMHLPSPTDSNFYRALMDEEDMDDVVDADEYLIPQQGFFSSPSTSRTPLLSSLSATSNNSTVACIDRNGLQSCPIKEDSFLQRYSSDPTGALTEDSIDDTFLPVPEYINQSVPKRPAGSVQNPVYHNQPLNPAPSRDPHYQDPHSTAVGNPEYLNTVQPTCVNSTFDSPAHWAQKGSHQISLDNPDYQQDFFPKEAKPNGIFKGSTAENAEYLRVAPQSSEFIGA
T1 sequence (P00533 25-1210): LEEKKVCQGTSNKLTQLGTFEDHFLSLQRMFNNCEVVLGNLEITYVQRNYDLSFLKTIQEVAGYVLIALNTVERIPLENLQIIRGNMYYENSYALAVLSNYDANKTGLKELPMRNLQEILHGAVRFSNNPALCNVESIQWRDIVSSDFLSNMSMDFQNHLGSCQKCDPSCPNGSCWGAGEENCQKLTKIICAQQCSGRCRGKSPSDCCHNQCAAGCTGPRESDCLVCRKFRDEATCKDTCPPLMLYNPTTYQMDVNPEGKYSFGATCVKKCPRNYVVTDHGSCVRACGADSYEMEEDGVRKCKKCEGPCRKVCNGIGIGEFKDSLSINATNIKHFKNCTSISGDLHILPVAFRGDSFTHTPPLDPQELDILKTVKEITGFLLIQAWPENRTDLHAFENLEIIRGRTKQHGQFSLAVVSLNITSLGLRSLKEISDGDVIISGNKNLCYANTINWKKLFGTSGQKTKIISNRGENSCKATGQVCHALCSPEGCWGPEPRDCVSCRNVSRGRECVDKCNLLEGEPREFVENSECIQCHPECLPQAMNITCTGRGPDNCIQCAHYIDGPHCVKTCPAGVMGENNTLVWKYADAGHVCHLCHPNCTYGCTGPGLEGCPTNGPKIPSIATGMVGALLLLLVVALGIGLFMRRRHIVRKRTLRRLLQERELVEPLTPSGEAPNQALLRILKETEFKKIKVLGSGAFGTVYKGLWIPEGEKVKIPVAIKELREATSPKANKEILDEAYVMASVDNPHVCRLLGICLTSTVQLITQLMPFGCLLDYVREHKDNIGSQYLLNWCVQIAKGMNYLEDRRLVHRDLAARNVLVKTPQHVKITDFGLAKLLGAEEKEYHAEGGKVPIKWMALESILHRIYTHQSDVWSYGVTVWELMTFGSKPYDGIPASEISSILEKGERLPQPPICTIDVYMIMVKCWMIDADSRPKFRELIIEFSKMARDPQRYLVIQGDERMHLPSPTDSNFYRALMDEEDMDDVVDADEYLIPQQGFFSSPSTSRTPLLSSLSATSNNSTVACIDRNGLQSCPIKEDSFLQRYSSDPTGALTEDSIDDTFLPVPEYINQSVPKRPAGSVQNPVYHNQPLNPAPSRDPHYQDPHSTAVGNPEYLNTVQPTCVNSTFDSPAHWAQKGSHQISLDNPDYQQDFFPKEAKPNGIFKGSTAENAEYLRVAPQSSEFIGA
T4 sequence (P00533 with tags, fused parts or gaps INS770SVD): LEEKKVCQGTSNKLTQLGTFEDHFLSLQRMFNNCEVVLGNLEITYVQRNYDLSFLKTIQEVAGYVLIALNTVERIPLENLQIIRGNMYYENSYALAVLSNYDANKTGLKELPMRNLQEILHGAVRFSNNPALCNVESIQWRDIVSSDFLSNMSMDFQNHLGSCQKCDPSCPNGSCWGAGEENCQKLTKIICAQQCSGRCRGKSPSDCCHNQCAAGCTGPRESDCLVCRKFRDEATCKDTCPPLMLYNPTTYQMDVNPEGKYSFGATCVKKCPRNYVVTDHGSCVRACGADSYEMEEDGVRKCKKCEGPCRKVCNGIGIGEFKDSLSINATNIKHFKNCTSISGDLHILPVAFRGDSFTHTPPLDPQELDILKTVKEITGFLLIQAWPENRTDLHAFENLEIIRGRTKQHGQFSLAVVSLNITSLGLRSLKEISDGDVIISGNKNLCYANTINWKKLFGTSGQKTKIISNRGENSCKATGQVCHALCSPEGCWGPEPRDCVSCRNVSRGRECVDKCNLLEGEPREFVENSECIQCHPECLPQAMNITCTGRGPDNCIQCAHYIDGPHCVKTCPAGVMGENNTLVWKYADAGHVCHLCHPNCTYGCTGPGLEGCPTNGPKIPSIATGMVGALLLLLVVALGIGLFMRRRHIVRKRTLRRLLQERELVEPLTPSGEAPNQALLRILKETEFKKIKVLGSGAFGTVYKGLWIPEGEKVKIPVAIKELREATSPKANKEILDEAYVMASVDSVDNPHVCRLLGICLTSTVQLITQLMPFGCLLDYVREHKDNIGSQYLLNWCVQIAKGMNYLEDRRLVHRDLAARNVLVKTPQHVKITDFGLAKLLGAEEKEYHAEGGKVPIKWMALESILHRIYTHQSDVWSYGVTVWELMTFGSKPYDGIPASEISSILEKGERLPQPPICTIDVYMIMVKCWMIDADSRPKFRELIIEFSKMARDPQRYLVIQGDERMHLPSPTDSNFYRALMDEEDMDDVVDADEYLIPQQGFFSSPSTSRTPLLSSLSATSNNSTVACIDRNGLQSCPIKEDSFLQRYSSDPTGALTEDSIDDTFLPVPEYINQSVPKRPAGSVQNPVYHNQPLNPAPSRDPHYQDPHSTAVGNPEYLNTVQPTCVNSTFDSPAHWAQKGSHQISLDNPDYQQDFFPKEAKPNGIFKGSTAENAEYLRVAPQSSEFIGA
T2 sequence (P00533 with tags, fused parts or gaps INS770NPG): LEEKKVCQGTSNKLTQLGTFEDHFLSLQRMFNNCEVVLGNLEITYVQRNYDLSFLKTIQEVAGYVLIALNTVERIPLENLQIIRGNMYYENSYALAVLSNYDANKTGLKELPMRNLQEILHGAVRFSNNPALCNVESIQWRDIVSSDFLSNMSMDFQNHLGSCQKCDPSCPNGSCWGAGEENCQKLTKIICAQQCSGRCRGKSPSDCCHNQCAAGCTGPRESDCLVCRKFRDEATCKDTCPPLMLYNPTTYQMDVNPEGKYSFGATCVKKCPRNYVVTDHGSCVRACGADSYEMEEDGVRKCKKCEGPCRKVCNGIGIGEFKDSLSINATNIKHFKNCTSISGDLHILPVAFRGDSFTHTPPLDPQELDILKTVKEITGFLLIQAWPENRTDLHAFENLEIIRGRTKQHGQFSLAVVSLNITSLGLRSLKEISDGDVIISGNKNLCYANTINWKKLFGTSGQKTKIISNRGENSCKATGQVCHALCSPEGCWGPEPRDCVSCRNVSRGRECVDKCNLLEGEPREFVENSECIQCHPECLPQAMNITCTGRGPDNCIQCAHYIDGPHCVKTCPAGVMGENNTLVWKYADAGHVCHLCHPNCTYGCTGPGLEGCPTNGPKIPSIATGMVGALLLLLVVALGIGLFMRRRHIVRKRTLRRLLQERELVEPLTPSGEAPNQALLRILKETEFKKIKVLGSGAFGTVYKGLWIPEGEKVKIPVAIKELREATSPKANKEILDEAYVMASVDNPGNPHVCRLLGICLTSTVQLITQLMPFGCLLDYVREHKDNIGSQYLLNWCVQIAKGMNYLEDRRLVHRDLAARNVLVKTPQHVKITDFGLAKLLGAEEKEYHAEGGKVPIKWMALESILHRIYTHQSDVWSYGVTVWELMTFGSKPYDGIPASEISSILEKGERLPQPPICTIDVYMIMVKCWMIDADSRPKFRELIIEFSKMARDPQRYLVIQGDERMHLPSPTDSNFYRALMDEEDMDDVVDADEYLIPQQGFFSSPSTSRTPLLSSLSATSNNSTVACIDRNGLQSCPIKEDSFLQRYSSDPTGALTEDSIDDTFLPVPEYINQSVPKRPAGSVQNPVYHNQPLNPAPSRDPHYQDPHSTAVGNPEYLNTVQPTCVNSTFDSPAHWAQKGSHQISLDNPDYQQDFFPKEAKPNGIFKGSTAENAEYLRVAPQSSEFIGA

Row | Structure (SMILES) | pIC50 (EGFR WT (Ba/F3 cells)) | pIC50 [1] | pIC50 [2] | pIC50 [3]
1 | C=CC(=O)N1CCC2(CC1)CNC(=O)c1c2[nH]c(-c2ccncc2F)c1Nc1cccc(Cl)c1Cl [Compound 589, 3′-[(2,3-dichlorophenyl)amino]-2′-(3-fluoropyridin-4-yl)-1-(prop-2-enoyl)-5′,6′-dihydro-1′H-spiro[piperidine-4,7′-pyrrolo[3,2-c]pyridin]-4′-one] | 6.00 to 7.00 | > 7.00 | > 7.00 | > 7.00
2 | COc1c(F)cccc1Nc1c(-c2ccnc3cnc(N4CCN(C(=O)/C=C/CN(C)C)CC4)nc23)[nH]c2c1C(=O)NCC2 [Compound 577, 2-(2-{4-[(2E)-4-(dimethylamino)but-2-enoyl]piperazin-1-yl}pyrido[3,2-d]pyrimidin-8-yl)-3-[(3-fluoro-2-methoxyphenyl)amino]-1H,5H,6H,7H-pyrrolo[3,2-c]pyridin-4-one] | 6.00 to 7.00 | > 7.00 | > 7.00 | > 7.00
3 | COc1c(F)cccc1Nc1c(-c2ccnc(Nc3cnnn3C)n2)[nH]c2c1C(=O)NCC2 [compound 591, 3-[(3-fluoro-2-methoxyphenyl)amino]-2-{2-[(3-methyl-1,2,3-triazol-4-yl)amino]pyrimidin-4-yl}-1H,5H,6H,7H-pyrrolo[3,2-c]pyridin-4-one] | 6.00 to 7.00 | > 7.00 | > 7.00 | > 7.00
4 | COc1ncc2nccc(-c3[nH]c4c(c3Nc3cccc(F)c3OC)C(=O)NC(C(F)(F)F)C4)c2n1 (stereo not shown) [Compound 595, 3-[(3-fluoro-2-methoxyphenyl)amino]-2-{2-methoxypyrido[3,2-d]pyrimidin-8-yl}-6-(trifluoromethyl)-1H,5H,6H,7H-pyrrolo[3,2-c]pyridin-4-one] | 6.00 to 7.00 | 6.00 to 7.00 | 6.00 to 7.00 | 6.00 to 7.00
5 | CC#CC(=O)N1CCC2(CC1)CNC(=O)c1c2[nH]c(-c2ccncc2F)c1Nc1cccc(F)c1OC [Compound 609, 1-(but-2-ynoyl)-3′-[(3-fluoro-2-methoxyphenyl)amino]-2′-(3-fluoropyridin-4-yl)-5′,6′-dihydro-1′H-spiro[piperidine-4,7′-pyrrolo[3,2-c]pyridin]-4′-one] | < 6.00 | < 6.00 | 6.00 to 7.00 | 6.00 to 7.00
6 | COCCOc1cncnc1-c1[nH]c2c(c1Nc1cccc(F)c1OC)C(=O)NCC2 [Compound 676, 3-[(3-fluoro-2-methoxyphenyl)amino]-2-[5-(2-methoxyethoxy)pyrimidin-4-yl]-1H,5H,6H,7H-pyrrolo[3,2-c]pyridin-4-one] | < 6.00 | < 6.00 | – | –

Further lines, results first:

Row | pIC50 (EGFR WT (Ba/F3 cells)) | pIC50 [1] | pIC50 [2] | pIC50 [3] | Structure (SMILES)
7 | < 6.00 | > 7.00 | – | – | COc1c(Cl)cccc1Nc1c(-c2ccncn2)[nH]c2c1C(=O)NC[C@@H]2C[C@@H]1COCCO1 [Compound 528, (7S)-3-[(3-chloro-2-methoxyphenyl)amino]-7-[(2R)-1,4-dioxan-2-ylmethyl]-2-(pyrimidin-4-yl)-1H,5H,6H,7H-pyrrolo[3,2-c]pyridin-4-one]
8 | < 6.00 | > 7.00 | – | – | COc1c(Cl)cccc1Nc1c(-c2ccncn2)[nH]c2c1C(=O)NCC2C[C@H]1COCCO1 (single isomer, unassigned) [Compound 574, (7R*)-3-[(3-chloro-2-methoxyphenyl)amino]-7-[(2S)-1,4-dioxan-2-ylmethyl]-2-(pyrimidin-4-yl)-1H,5H,6H,7H-pyrrolo[3,2-c]pyridin-4-one]
9 | < 6.00 | 6.00 to 7.00 | 6.00 to 7.00 | 6.00 to 7.00 | COc1c(F)cccc1Nc1c(-c2ccncn2)[nH]c2c1C(=O)NC[C@@H]2C[C@@H]1COCCO1 [Compound 529, (7S)-7-[(2R)-1,4-dioxan-2-ylmethyl]-3-[(3-fluoro-2-methoxyphenyl)amino]-2-(pyrimidin-4-yl)-1H,5H,6H,7H-pyrrolo[3,2-c]pyridin-4-one]
10 | < 6.00 | > 7.00 | > 7.00 | > 7.00 | COc1c(Cl)cccc1Nc1c(-c2ccnc(C)n2)[nH]c2c(C[C@H]3COCCO3)c[nH]c(=O)c12 [compound 659]
